Measured values as given in US7951788B2, “Method of treating cancer and other conditions or disease states using L-cytosine nucleoside analogs” (Yale University, priority 2005, dated 2011).

Assays:
colon 38 = experiment: Experiment 2: enhancement of the anti-cancer effect of oxaliplatin on colon 38 growth in mice; type: in vivo, C57BL6 female mice; conditions: combination with oxaliplatin 10 mg/kg i.p. once on day 1, FIG. 2; for enhancement of the anti-tumor effect of oxaliplatin on colon 38: nucleoside p.o. b.i.d. days 1-5 (3TC, FTC 100 mg/kg; LFd4C 15 mg/kg per legend); for duration of the enhancing effect with oxaliplatin: nucleoside p.o. b.i.d. days 1-5
Experimental: (§1) In general, the following protocol was used to implant mice with tumor cell lines and to test drugs for the anti-cancer effect.
(§2) This tumor is passed from a solid tumor growing in mice. Several grams (assuming a gram per ml) are pressed through a sterile screen and suspended in a tissue culture media without phenol red or fetal calf serum (a balanced salt solution) at 2 ml/gram of tumor. Then 0.1 ml of this tumor suspension is implanted into the flank of the mouse. Ten days to two weeks after implantation (when the tumors could be measured with a caliper), unless otherwise indicated, the drug therapy was initiated.
(§3) In general, drugs are delivered according to the following schedule. Every day the mice are weighed to deter the amount to be injected and as an index of toxicity.
(§4) The Tumor Volume is calculated from the measurements by the formula: length (mm)×width (mm)×width (mm)×Π/6 as a % of Day 1.
Experiment 2 tested the effects of 3TC, FTC and LFD4C (same schedule as above) on the enhancement of anti-cancer drug effect of oxaliplatin (10 mg/kg i.p., once on day 1) on colon 38 growth in C57BL6 female mice. […].
In FIG. 2, the following legend applies:
3TC and FTC (100 mg/kg) p.o.b.i.d. day 1-5;
LFd4C (15 mg/kg) p.o.b.i.d. days 1-5;
Oxaplatin (10 mg/kg) i.p. once on day 1;
Combination groups received both treatments as described above.

colon 38 mouse tumor = experiment: Experiment 1: growth of colon 38 tumor implanted in the flank of mice, drugs alone and combined with 5-FU/leucovorin; type: in vivo; conditions: FIG. 1; for effect on the anti-cancer activity of 5-FU/LV: combination with 5FU/LV 150 mg/kg each i.p. once on day one, nucleoside p.o. b.i.d. for 5 days (3TC, FTC 100 mg/kg; LFD4C 20 mg/kg); for growth of colon 38 mouse tumor (tumor volume as % of Day 1): drug alone; for growth of colon 38 mouse tumor (tumor volume as % of Day 1) / duration of the effect on colon 38 tumor growth: immunocompetent mice, p.o. b.i.d. for 5 days, 3TC and FTC 100 mg/kg, LFD4C 20 mg/kg
Experimental: as §1, §2, §3, §4
This experiment was designed to determine the effect of 3TC, FTC or LFD4C alone and in combination with 5-Fluorouracil with leucovorin rescue on the growth of mouse tumor (colon 38) in immuno-competent mice. The drugs were administered to the mice according to the following schedule:
5FU/LV—150 mg/kg each i.p. once on day one
3TC—100 mg/kg p.o. b.i.d. for 5 days
FTC—100 mg/kg p.o. bid for 5 days
LFD4C—20 mg/kg p.o. b.i.d. for 5 days
Combination groups received both treatments as per above schedules.
In FIG. 1, the following legend applies:
3TC (100 mg/kg) p.o.b.i.d.×5 days;
FTC (100 mg/kg) p.o.b.i.d.×5 days;
LFd4C (20 mg/kg) p.o.b.i.d.×5 days;
Combination groups received both treatments as per above.

Row | Structure (SMILES) | enhancement of the anti-tumor effect of oxaliplatin on colon 38 (colon 38) | duration of the enhancing effect with oxaliplatin (colon 38) | effect on the anti-cancer activity of 5-FU/LV (colon 38 mouse tumor) | growth of colon 38 mouse tumor (tumor volume as % of Day 1) (colon 38 mouse tumor) | duration of the effect on colon 38 tumor growth (colon 38 mouse tumor)
1 | Nc1nc(=O)n([C@@H]2CS[C@H](CO)O2)cc1F [FTC, emtricitabine] | clearly enhanced | lasts well after the treatment is stopped | significant (additive or synergistic) | slows down the growth | lasted well past the 5 day therapy
2 | Nc1nc(=O)n([C@@H]2C=C[C@H](CO)O2)cc1F [LFD4C, Elvucitabine] | clearly enhanced | lasts well after the treatment is stopped | significant (additive or synergistic) | slows down the growth | lasted well past the 5 day therapy
